According to article PMC7463913, “The Interaction of Fluorinated Glycomimetics with DC-SIGN: Multiple Binding Modes Disentangled by the Combination of NMR Methods and MD Simulations” (Pharmaceuticals, 2020):

Target: T1, DC-SIGN (ECD) (Homo sapiens, UniProt Q9NNX6)
T1 construct: DC-SIGN full extracellular domain (ECD, residues 70-404, Thermo Fischer Scientific); made in house
T1 sequence (Q9NNX6 70-404): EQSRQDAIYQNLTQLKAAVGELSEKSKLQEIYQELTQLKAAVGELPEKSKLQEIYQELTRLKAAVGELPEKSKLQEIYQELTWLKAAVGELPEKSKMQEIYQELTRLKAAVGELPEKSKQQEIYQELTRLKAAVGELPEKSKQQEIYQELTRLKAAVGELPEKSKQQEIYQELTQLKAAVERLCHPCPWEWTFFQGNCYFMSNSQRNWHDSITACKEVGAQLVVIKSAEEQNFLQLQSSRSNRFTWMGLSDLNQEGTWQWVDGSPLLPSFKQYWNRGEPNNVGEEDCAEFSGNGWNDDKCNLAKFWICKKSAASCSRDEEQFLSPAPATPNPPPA
Test: competitive 19F-R2 filtered NMR experiments (spy molecule 6-F-ManαOMe)
Assay type: binding
Settings: for loss in affinity versus the trisaccharide 1: fluorinated disaccharides versus 1; for weaker ligand relative to best binders (1b, 1c, 1d): fold loss of affinity from KI values; for Ki: non-linear least squares fitting, [6-F-ManαOMe] 400 µM, [DC-SIGN (CRDs)] 10 µM, 298 K, pH 8.0
From the text: In order to gain insights into the effects that the different fluorination patterns may have in the binding event, the affinities of 1b, the natural analogue of 1, as well as 1c and 1d, two partially fluorinated trisaccharides, were also estimated. (Table 2, Figure S1).
For KD estimation of 6-deoxy-6-F-Man (the spy-molecule), the free evolution delay was set to an optimized value τ=1 ms , after using relaxation dispersion experiments to assure a negligible chemical exchange contribution to R2,obs (Figure S1a). The KI of 1, 1b-d, 2, and 3 with DC-SIGN (ECD) was determined by titration experiments in a competitive fashion. Increasing amounts of the competitor molecules (compounds 1, 1b-d, 2, and 3) were added to a solution mixture of the spy molecule and the protein in each case, calculating the R2,obs of the spy molecule at each competitor concentration while the ratio [Spy-molecule]/[Protein] is fixed (40:1) (Figure S1c).
19F-R2 filtered experiments
The KD of compounds 1, 1b-d, 2 and 3 was estimated applying a 19F-R2 filtered approach. 6-F-ManαOMe, which weakly binds to DC-SIGN, was selected as the spy molecule. Relaxation rates R2 were determined employing a CPMG pulse sequence, by fitting the observed 19F signal intensity to the exponential decay curve:
ܫ(ݐ) = ܫ଴݁ି௧ோమ = ܫ଴݁ି௡ଶఛோమ (1) where ܫ(ݐ) refers to intensity at time ݐ, ܫ଴ is intensity at ݐ = 0, and ܴଶ is the transversal relaxation rate (ܴଶ = 1/ܶଶ).
In the limit of fast-exchange where the exchange contribution to the observed transversal relaxation rate ܴଶ,௢௕௦ is insignificant (Figure S1, a)), the following equations apply:
ܴଶ,௢௕௦ = ܴଶ,௙ + ൫ܴଶ,௕ − ܴଶ,௙൯݌௕ (2)
[ܲ]் + [ܮ]் + ܭ஽ − ඥ([ܲ]் + [ܮ]் + ܭ஽)ଶ − 4[ܲ]்[ܮ]் (3) where [ܲ]் and [ܮ]் are the total protein and ligand concentrarion respectively, [ܴ]ଶ,௙ and [ܴ]ଶ,௕ are the relaxation rates in the free and bound states, ݌௕ is the fraction of bound ligand and ܭ஽ the dissociation constant of the protein-ligand complex. [ܴ]ଶ,௙ of 6-F-ManαOMe was measured in absence of the lectin, and Equation 2 was used to estimate ܭ஽and [ܴ]ଶ,௕ for the […]
Then, ܭூ of compounds 1, 1b-d, 2 and 3 was measured in a competitive manner. ܴଶ,௢௕௦ of 6-F-ManαOMe (spy molecule) in solution with DC-SIGN ECD was monitored at 5 different competitor concentrations ([ܫ]) in each case with a fixed [ܲ]்/[ܮ]் ratio (Figure S1, c)), to derive ܭூ by fitting to Equation 2 with ݌௕ as defined in Equations (4) and (5) (Table 2):
݌௕ = 3ܭ + 2 cos൫ߠൗ ൯ √ܽଶ − 3ܾ − ܽ (4)
ߠ = cos ൬ ଶඥ(௔మିଷ௕)య ൰, ܽ = ܭ஽ + ܭூ + [ܮ]் + [ܫ]் − [ܲ]், ܾ = ([ܫ]் − [ܲ]்)ܭ஽ + ([ܮ]் − [ܲ]்)ܭ஽ + ܭூܭ஽, ܿ = −ܭூܭ஽[ܲ]்
Figure S1. 19F-R2 filtered experiments. a) Relaxation dispersion experiment for 6-F-ManαOMe (the spy molecule). R2,obs of the 19F nucleus is measured for different values of ωCPMG. Ligand and protein sample concentrations were: [6-F-ManαOMe] = 400 µM, [DC-SIGN (CRDs)] = 10 µM (counting concentration of CRDs, i.e, 4 CRDs per DC-SIGN ECD tetramer). For ωCPMG > 1000 s-1, there is virtually negligible exchange contribution to R2. Therefore, all the subsequent R2 filtered experiments were carried out with τCPMG = 1/ωCPMG = 1 ms. b) KD determination of 6-F-ManαOMe with DC-SIGN. R2,obs was measured for increasing amounts of [6-F-ManαOMe]/[DC-SIGN (CRDs)] (blue dots). KD and R2,b were obtained from fitting to Equation 2, which is valid in the fast-exchange regime (Rex = 0) [39a]. The predicted values at each [6-F-ManαOMe]/[DC-SIGN (CRDs)] are shown as red stars for comparison c) Titration curves showing the variation in 19F-R2,obs of the spy molecule 6-F-ManαOMe, when increasing amounts of the competitors (I) 1, 1b-d, 2 and 3 are added to a mixture [6-F-ManαOMe] = 400 µM, [DC-SIGN (CRDs)] = 10 µM. […]

Structure (SMILES) | loss in affinity versus the trisaccharide 1 | weaker ligand relative to best binders (1b, 1c, 1d) | Ki | binding free energy difference (corresponding to the variation in affinity of 1 versus 1b) | variation in binding affinity (trifluorinated 1 versus 1b)
CO[C@H]1O[C@H](CO)[C@@H](O)[C@H](O[C@H]2O[C@H](CO)[C@@H](O)[C@H](O)[C@@H]2F)[C@@H]1F [compound 2] | ca. four-fold | nine- | 9.6 mM |  | 
CO[C@H]1O[C@H](CO[C@H]2O[C@H](CO)[C@@H](O)[C@H](O)[C@@H]2F)[C@@H](O)[C@H](O)[C@@H]1F [compound 3] | ca. two-fold | four-fold weaker | 4 mM |  | 
CO[C@H]1O[C@H](CO[C@H]2O[C@H](CO)[C@@H](O)[C@H](O)[C@@H]2F)[C@@H](O)[C@H](O[C@H]2O[C@H](CO)[C@@H](O)[C@H](O)[C@@H]2F)[C@@H]1F [compound 1] |  | two-fold weaker | 2.5 mM | ca. 1 kcal/mol | 2.5 fold
